Reference: paper PMC7966987, “Insights into the catalytic properties of the mitochondrial rhomboid protease PARL” (The Journal of Biological Chemistry, 2021)
Values joined by “and” are separate entries in the source; they are usually repeats but may differ in a detail not shown here. Equal values may be shown once. “Also recorded” adds a separate entry of the source.

Molecular target: T1, PARLΔ77 (Homo sapiens, UniProt Q9H300)
T1 construct: GFP-hexahistidine (behind a TEV cleavage site) (C, cleaved yes); made in house; host or cells: Pichia pastoris
T1 sequence (Q9H300 78-379): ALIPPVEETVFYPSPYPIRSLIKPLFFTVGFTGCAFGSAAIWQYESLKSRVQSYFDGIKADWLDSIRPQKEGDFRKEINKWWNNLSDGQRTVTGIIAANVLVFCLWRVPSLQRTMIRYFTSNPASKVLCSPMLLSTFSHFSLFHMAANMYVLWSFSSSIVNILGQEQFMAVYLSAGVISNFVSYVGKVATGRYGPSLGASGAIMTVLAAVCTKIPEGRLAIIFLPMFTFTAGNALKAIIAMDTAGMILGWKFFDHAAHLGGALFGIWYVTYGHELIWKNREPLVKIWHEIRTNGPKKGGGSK
Test: IQ-peptide substrate cleavage kinetics, PARLΔ77 in proteoliposomes
Format: biochemical
Conditions: for ranking of substrate cleavage: in proteoliposomes, by kcat, KM or kcat/KM
Description: To assess the activity of recombinant PARL toward known substrates in a lipid bilayer, full-length and β-truncated PARL were reconstituted in proteoliposomes (PLs) using Escherichia coli lipids that closely resemble the composition of the IMM ([31]). We determined that the EDANS/Dabcyl - FRET tags prevented incorporation of the substrates into PL; however, the substrate could still be cleaved since the active site is proposed to be near the lipid/water interface ([40], [41]) analogous to bacterial rhomboid proteases (Fig. 1). To calculate the specific activity of the protease, we quantified the fraction of PARL in the PLs with an outward facing active site using a membrane […] activity-based TAMRA-labeled fluorophosphonate probe ([42]). […] These values were used to calculate specific activity of the PARL protease. Next, we compared cleavage of three IQ-peptide substrates by reconstituted full-length mature PARLΔ55 and the β-truncated form, PARLΔ77 (Fig. 3, Tables S5 and S6).
Assays with FRET-PINK1^70–134 were conducted as previously described ([26]). For EDANS/Dabcyl 10-mer IQ peptides (PINK1, PGAM5, Smac/Diablo), lyophilized peptides were initially dissolved in DMSO to obtain a stock solution. The IQ peptide substrates in a concentration range of 0.1–70 μM were incubated with activity assay buffer (50 mM Tris-HCl pH 7.0, 150 mM NaCl, 10% glycerol, 0.1% DDM) in a 384-well black-bottomed plate at 37 °C for 30 min in a multiwell plate reader (SynergyMx, BioTek). For all concentrations of IQ peptide, the DMSO was kept constant at 5%. Following preincubation, PARL was added to a final concentration of 0.8 μM to initiate the cleavage reaction. Fluorescence readings were taken every 3 min over a 3 h time course at ƛex = 336 nm and ƛem = 490 nm. The initial velocity was determined from the fluorescence readings over the time course. For each substrate concentration, a no-enzyme control was subtracted to eliminate background fluorescence changes not related to substrate cleavage. Relative fluorescence units were converted to concentration (μM) by determining the maximum change in fluorescence observed for each substrate concentration when fully digested. GraphPad Prism software was used for Michaelis–Menten analysis of kinetic curves. All kinetic data were obtained using at least three biological replicates (different enzyme preparations) with technical duplicates for each experiment. For kinetic measurements in detergent with all three substrates, the activity assays were repeated at least five times. In addition, after each protease purification, the quality control of purified PARL was controlled by measuring its enzymatic activity. Minimum of three experimental replicates with two technical replicates were used for data analysis.
E. coli polar lipids (Avanti), 400 μg in chloroform, were dried under nitrogen stream in a glass tube to yield a thin film of lipid. The tube was incubated overnight in a desiccator to completely remove all traces of solvent. In total, 50 μl of water and DDM detergent was added to the lipid film for resuspension at room temperature for 10 min, followed by the addition of purified PARL (400 μg) in 50 mM Tris-HCl, pH 8.0, 150 mM NaCl, 20% glycerol, 0.1% DDM, to yield the final weight ratio of 1 PARL:1 lipid:2 detergent. The detergent was slowly removed by the addition of SM2 Biobeads (Bio-Rad) while stirring on ice for 6 h to allow for the generation of proteoliposomes (PL); the process was controlled by the regimen of Biobead addition. To purify the PL, 50%:20% sucrose density gradient ultracentrifugation was used. A TAMRA probe (ThermoFisher) was used to determine the orientation of reconstituted PARL, which specifically and covalently labels serine residues of an enzymatically active serine protease. In total, 2 μM of TAMRA probe was added to PL samples and incubated for 1 h, allowing the TAMRA probe to label only the outward-facing accessible active sites. […]

Substance | ranking of substrate cleavage | turnover rate (PARLΔ77 in proteoliposomes)
(DABCYL)-AVFLSAVAVG-Glu(EDANS) [IQ-PGAM5^20–29, internally quenched DABCYL/EDANS peptide substrate based on PGAM5 PARL cleavage site] | the preferred substrate with the lowest KM and the highest catalytic efficiency; also recorded: cleaved with the highest efficiency | 
(DABCYL)-GVT LCAVPIA-Glu(EDANS) [IQ-Smac/Diablo^51–60, internally quenched DABCYL/EDANS peptide substrate based on Smac/Diablo PARL cleavage site] | the fastest | 1.0 ± 0.1 min⁻¹ and 1 min⁻¹
